Experimental data as given in patent US20120184438A1, “FORMULATIONS” (SYNGENTA CROP PROTECTION, LLC, priority 2009, published 2012).
Read-outs that look alike come from different tables or passages of the source.

Experiments:
Assay type in all cases: physicochemical
[1] = Aqueous solubility of solvents
From the text: (§1) This Example illustrates that Compound Number 1 is unusually effective at dissolving pesticides given that it has a water solubility which is low.

[2] = Solubility of agrochemical active ingredients in Compound No. 1 (equilibrated 4 weeks at 25° C., supernatant analysed by GC/LC); conditions: solvent Compound No. 1 (DEET), 4 weeks equilibration
Method: The resultant sample was mixed with a Whirlimixer™ and was then stored at 25° C. The sample was checked every few days; if there was no solid active ingredient present then additional active ingredient was added; if there was no liquid remaining then additional solvent was added. This procedure was repeated until the sample had equilibrated for 4 weeks following the final addition of either active ingredient or solvent.

[3] = Pesticide (A.I.) solubility in several solvents at 25° C.
Method: A glass vial was approximately one eighth filled with an active ingredient [Al] and then solvent [in this example, Compound Number 1 from Table 1] was added until the vial was approximately one third full. The resultant sample was mixed with a Whirlimixer™ and was then stored at 25° C. The sample was checked every few days; if there was no solid active ingredient present then additional active ingredient was added; if there was no liquid remaining then additional solvent was added. This procedure was repeated until the sample had equilibrated for 4 weeks following the final addition of either active ingredient or solvent. The supernatent liquid layer was then analysed by gas chromatography [except for 4-hydroxy-3-[2-(2-methoxyethoxymethyl)-6-trifluoromethylpyridine-3-carbonyl]-bicyclo[3.2.1]oct-3-en-2-one which was analysed by liquid chromatography] for active ingredient concentration; the results are given in Table 2:
as §1

[4] = solubility of the solvent in water

CC(=O)O[C@@H]1C[C@H]2CC[C@]1(C)C2(C)C (racemic) [Isobornyl acetate]
Aqueous solubility [1, 4]: 0.003 % w/w

COCCOCc1nc(C(F)(F)F)ccc1C(=O)C1=C(O)C2CCC(C2)C1=O (stereo not drawn) [4-Hydroxy-3-[2-(2-methoxyethoxymethyl)-6-trifluoromethylpyridine-3-carbonyl]-bicyclo[3.2.1]oct-3-en-2-one]
Solubility in Compound No. 1 at 25° C. [2]: 24.7 % w/w

CO/C=C(/C(=O)OC)c1ccccc1Oc1cc(Oc2ccccc2C#N)ncn1 [Azoxystrobin]
Solubility in Compound No. 1 at 25° C. [2]: 11.3 % w/w

CCN(CC)C(=O)c1cccc(C)c1 [Compound No. 1]
Aqueous solubility [1, 4]: 0.1 % w/w

CC(C1CC1)C(O)(Cn1cncn1)c1ccc(Cl)cc1 (stereo not drawn) [Cyproconazole]
Solubility in Compound No. 1 at 25° C. [2]: 33.4 % w/w

C[S+](C)[O-] [DMSO]
A.I. Solubility at 25° C., Azoxystrobin [3]: 32.1 % w/w | A.I. Solubility at 25° C., Cyproconazole [3]: 55.5 % w/w | Aqueous solubility [1, 4]: 100 % w/w

CC(C)[C@@H]1CC[C@@H](C)CC1=O [Menthone]
Aqueous solubility [1, 4]: 0.030 % w/w

CN1CCCC1=O [N-Methyl pyrrolidone]
Aqueous solubility [1, 4]: 100 % w/w

OCC1CCCO1 (stereo not drawn) [Tetrahydrofurfuryl alcohol]
Aqueous solubility [1, 4]: 100 % w/w

CCCCOC(=O)c1ccccc1 [n-Butylbenzoate]
Aqueous solubility [1, 4]: 0.1 % w/w

Trimethylbenzene
A.I. Solubility at 25° C., Azoxystrobin [3]: 1.7 % w/w | A.I. Solubility at 25° C., Cyproconazole [3]: 5.8 % w/w | Aqueous solubility [1]: 0.1 % w/w
